Data as given in paper PMC10175918 (Communications Biology, 2023).
Where two headings read alike, the source gives them in different places.

Columns and labels:
Assay in all cases: TGFα-shedding assay-based GPCR screening with chimeric Gα subunit proteins
Format in all cases: cell-based
[1] = target: T1, 348 GPCRs (Homo sapiens, UniProt P46091)
T1 construct: expressed in transfected cells; host or cells: HEK293A
T1 sequence (P46091 1-355): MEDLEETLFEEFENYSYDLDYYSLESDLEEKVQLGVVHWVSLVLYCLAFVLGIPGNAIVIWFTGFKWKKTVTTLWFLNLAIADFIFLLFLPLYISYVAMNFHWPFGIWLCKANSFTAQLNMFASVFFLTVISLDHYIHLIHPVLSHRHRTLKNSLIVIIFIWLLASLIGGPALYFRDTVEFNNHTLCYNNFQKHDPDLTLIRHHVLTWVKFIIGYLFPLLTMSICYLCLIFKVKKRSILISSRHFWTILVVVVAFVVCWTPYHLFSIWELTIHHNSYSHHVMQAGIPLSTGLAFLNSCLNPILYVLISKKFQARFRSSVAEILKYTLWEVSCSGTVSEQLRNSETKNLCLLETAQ

[2] = target: T2, 348 GPCRs (Homo sapiens, UniProt P25101); details: 10µM, Favipiravir 100μM
T2 construct: expressed in transfected cells; host or cells: HEK293A
T2 sequence (P25101 21-427): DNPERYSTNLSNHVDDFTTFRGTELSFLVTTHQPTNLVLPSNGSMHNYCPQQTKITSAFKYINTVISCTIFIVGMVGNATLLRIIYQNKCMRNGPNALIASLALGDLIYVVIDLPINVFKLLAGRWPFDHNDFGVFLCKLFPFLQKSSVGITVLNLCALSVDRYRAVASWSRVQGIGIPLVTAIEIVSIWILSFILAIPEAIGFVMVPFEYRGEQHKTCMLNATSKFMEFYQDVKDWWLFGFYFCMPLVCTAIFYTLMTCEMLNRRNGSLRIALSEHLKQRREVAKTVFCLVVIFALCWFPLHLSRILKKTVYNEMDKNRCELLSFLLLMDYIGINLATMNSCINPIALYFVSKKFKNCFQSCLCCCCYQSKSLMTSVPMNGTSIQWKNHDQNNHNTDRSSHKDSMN

[3] = target: T3, 348 GPCRs (Homo sapiens, UniProt Q9NYW0); details: 10µM, Favipiravir 100μM
T3 construct: expressed in transfected cells; host or cells: HEK293A
T3 sequence (Q9NYW0 1-307): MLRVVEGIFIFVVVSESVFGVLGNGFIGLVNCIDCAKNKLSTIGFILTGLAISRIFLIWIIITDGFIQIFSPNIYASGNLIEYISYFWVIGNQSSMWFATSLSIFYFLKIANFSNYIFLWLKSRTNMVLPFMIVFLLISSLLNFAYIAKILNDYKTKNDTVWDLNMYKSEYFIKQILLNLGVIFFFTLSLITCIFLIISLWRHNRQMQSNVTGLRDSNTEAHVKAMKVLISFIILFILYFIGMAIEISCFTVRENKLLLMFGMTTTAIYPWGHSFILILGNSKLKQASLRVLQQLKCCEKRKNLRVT

[4] = target: T4, 348 GPCRs (Homo sapiens, UniProt Q15760); details: 10µM, Favipiravir 100μM
T4 construct: expressed in transfected cells; host or cells: HEK293A

[5] = target: T5, 348 GPCRs (Homo sapiens, UniProt P59542); details: 10µM, Favipiravir 100μM
T5 construct: expressed in transfected cells; host or cells: HEK293A
T5 sequence (P59542 1-299): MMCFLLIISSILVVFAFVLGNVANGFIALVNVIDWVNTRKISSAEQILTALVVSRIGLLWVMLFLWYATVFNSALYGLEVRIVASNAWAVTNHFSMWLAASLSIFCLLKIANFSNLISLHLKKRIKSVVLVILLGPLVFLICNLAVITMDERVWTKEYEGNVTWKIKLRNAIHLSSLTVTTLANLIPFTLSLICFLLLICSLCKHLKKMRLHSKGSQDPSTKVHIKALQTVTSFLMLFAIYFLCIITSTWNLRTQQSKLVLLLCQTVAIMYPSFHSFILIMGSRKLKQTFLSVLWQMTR

[6] = target: 348 GPCRs (Homo sapiens, UniProt P14416); details: 10µM, Favipiravir 100μM
[7] = target: 348 GPCRs (Homo sapiens, UniProt P35372); details: 10µM, Favipiravir 100μM
[8] = target: T6, 348 GPCRs (Homo sapiens, UniProt Q9HBW9); details: 10µM, Favipiravir 100μM
T6 construct: expressed in transfected cells; host or cells: HEK293A
T6 sequence (Q9HBW9 20-690): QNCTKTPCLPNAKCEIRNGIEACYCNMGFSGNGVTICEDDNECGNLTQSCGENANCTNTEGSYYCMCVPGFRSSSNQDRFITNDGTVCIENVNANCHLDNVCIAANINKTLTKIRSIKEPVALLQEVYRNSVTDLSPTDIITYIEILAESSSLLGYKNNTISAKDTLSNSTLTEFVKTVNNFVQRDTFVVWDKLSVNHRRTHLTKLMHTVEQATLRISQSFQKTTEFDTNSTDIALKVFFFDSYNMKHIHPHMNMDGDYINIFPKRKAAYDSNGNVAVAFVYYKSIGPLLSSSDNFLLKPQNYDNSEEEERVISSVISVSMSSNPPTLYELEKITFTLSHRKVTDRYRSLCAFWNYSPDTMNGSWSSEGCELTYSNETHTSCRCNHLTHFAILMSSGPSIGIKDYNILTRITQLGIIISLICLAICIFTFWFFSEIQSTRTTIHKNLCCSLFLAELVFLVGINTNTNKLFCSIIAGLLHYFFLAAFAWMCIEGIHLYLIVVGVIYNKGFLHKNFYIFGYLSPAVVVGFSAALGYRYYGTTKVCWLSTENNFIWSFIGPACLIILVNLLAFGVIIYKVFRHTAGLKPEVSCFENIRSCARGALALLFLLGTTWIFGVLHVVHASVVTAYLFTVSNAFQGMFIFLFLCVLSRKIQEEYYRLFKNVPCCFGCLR

[9] = target: T7, 348 GPCRs (Homo sapiens, UniProt P32245)
T7 construct: expressed in transfected cells; host or cells: HEK293A

[10] = GPCR GPR1 (G protein-coupled receptor 1), read-out: % GPCR activation compared to TPA
[11] = EDNRA (endothelin receptor type A), read-out: % GPCR activation compared to TPA
[12] = TAS2R10 (taste receptor, type 2, member 10), read-out: % GPCR activation compared to TPA
[13] = GPR19 (G Protein-Coupled Receptor 19), read-out: % GPCR activation compared to TPA
[14] = TAS2R19 (taste receptor, type 2, member 19), read-out: % GPCR activation compared to TPA
[15] = D2 (dopamine receptor D2), read-out: % GPCR activation compared to TPA
[16] = OPRM1, read-out: % GPCR activation compared to TPA, OPRM1 (opioid receptor, mu 1 (MOR1))
[17] = ELTD1 (EGF, latrophilin and seven transmembrane domain containing 1), read-out: % GPCR activation compared to TPA
[18] = GPCR MC4R (melanocortin 4 receptor), read-out: % GPCR activation compared to TPA
[19] = read-out: % GPCR activation compared to TPA, GPCR GPR1 (G protein-coupled receptor 1)
[20] = read-out: % GPCR activation compared to TPA, EDNRA (endothelin receptor type A)
[21] = read-out: % GPCR activation compared to TPA, TAS2R10 (taste receptor, type 2, member 10)
[22] = read-out: % GPCR activation compared to TPA, GPR19 (G Protein-Coupled Receptor 19)
[23] = read-out: % GPCR activation compared to TPA, TAS2R19 (taste receptor, type 2, member 19)
[24] = read-out: % GPCR activation compared to TPA, D2 (dopamine receptor D2)
[25] = read-out: % GPCR activation compared to TPA, ELTD1 (EGF, latrophilin and seven transmembrane domain containing 1)
[26] = read-out: % GPCR activation compared to TPA, GPCR MC4R (melanocortin 4 receptor)

T7 sequence (P32245 whole entry): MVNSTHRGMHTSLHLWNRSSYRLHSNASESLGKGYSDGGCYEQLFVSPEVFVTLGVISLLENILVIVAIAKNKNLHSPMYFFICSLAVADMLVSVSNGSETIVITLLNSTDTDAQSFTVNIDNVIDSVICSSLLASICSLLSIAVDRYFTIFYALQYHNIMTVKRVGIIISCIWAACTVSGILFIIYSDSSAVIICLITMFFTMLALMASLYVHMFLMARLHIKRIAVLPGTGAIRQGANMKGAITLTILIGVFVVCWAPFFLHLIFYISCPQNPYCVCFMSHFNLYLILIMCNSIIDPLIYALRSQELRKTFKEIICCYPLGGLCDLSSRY
348 GPCRs (Homo sapiens, UniProt P35372), sequence (P35372 whole entry): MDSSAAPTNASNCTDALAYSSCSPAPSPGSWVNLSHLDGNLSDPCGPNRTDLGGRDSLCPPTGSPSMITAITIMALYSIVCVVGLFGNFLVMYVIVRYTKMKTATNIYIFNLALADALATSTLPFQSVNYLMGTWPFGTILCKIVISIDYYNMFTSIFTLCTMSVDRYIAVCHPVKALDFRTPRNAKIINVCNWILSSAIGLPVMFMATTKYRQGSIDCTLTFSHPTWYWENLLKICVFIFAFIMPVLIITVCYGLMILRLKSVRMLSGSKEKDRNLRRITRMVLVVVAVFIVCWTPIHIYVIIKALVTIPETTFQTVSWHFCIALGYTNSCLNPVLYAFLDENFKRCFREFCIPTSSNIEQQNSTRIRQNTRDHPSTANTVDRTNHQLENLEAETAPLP
T4 sequence (Q15760 whole entry): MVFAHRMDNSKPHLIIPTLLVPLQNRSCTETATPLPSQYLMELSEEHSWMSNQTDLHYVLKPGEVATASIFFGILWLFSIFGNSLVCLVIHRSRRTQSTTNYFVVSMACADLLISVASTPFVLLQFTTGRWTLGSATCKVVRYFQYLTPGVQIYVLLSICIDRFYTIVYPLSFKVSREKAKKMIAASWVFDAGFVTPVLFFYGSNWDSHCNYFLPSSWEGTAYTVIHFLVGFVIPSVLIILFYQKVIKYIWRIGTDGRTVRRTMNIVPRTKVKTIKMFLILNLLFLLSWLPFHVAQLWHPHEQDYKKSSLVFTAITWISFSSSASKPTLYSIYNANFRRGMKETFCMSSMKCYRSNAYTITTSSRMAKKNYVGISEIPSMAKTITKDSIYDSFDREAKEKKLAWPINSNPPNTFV
348 GPCRs (Homo sapiens, UniProt P14416), sequence (P14416 whole entry): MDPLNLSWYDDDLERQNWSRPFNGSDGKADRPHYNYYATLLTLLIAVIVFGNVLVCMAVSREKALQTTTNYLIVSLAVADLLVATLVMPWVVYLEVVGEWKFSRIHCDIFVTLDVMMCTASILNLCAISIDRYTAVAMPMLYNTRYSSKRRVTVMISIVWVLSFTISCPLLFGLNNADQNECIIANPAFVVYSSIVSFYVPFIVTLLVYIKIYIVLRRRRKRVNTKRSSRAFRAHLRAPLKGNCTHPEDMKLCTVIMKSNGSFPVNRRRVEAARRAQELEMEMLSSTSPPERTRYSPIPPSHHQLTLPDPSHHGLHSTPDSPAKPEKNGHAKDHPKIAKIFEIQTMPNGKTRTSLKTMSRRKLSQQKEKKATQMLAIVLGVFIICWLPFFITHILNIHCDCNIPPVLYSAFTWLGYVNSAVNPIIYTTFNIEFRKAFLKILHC

Row | activation at 10 µM [1, 10] | activation at 100 µM [2, 11] | activation at 100 µM [3, 12] | activation at 100 µM [4, 13] | activation at 100 µM [5, 14] | activation at 100 µM [6, 15] | activation at 100 µM [8, 17] | activation at 10 µM [9, 18] | activation at 100 µM ([1]; GPCR GPR1 (G protein-coupled receptor 1), 100μM, read-out: % GPCR activation compared to TPA) | activation at 10 µM ([7]; OPRM1, OPRM1 (opioid receptor, mu 1 (MOR1)), read-out: % GPCR activation compared to TPA) | activation at 100 µM ([9]; GPCR MC4R (melanocortin 4 receptor), 100μM, read-out: % GPCR activation compared to TPA) | Compound | activation at 10 µM [7, 16] | activation at 10 µM [1, 19] | activation at 100 µM [2, 20] | activation at 100 µM [3, 21] | activation at 100 µM [4, 22] | activation at 100 µM [5, 23] | activation at 100 µM [6, 24] | activation at 100 µM [8, 25] | activation at 10 µM [9, 26]
1 | -3.33% | 2.17% | 0.66% | -0.932% | -0.28% | 4.14% | -0.971% | 2.19% |  |  |  | N#C[C@@]1(c2ccc3c(N)ncnn23)O[C@H](CO)[C@@H](O)[C@H]1O [GS441524] | -2.75% |  |  |  |  |  |  |  | 
2 |  | 0.818% | 1.23% | -0.654% | -1.32% | 4.37% | -0.0903% |  | -1.92% | -1.89% | 2.24% | NC(=O)c1nc(F)cnc1O [favipiravir, 6-fluoro-3-hydroxy-2-pyrazinecarboxamide] |  |  |  |  |  |  |  |  | 

The next lines start with the compound.

Row | Compound | activation at 10 µM [1, 10] | activation at 100 µM [2, 11] | activation at 100 µM [3, 12] | activation at 100 µM [4, 13] | activation at 100 µM [5, 14] | activation at 100 µM [6, 15] | activation at 100 µM [8, 17] | activation at 10 µM [9, 18] | activation at 100 µM ([1]; GPCR GPR1 (G protein-coupled receptor 1), 100μM, read-out: % GPCR activation compared to TPA) | activation at 10 µM ([7]; OPRM1, OPRM1 (opioid receptor, mu 1 (MOR1)), read-out: % GPCR activation compared to TPA) | activation at 100 µM ([9]; GPCR MC4R (melanocortin 4 receptor), 100μM, read-out: % GPCR activation compared to TPA) | activation at 10 µM [7, 16] | activation at 10 µM [1, 19] | activation at 100 µM [2, 20] | activation at 100 µM [3, 21] | activation at 100 µM [4, 22] | activation at 100 µM [5, 23] | activation at 100 µM [6, 24] | activation at 100 µM [8, 25] | activation at 10 µM [9, 26]
3 | CC(C)C(=O)OC[C@H]1O[C@@H](n2ccc(NO)nc2=O)[C@H](O)[C@@H]1O [molnupiravir] | -1.07% | 0.536% | -0.25% | -0.76% | -0.811% | -0.0472% | -0.0765% | -1.93% |  |  |  | -3.97% |  |  |  |  |  |  |  | 
4 | CCC(CC)COC(=O)[C@H](C)N[P@](=O)(OC[C@H]1O[C@@](C#N)(c2ccc3c(N)ncnn23)[C@H](O)[C@@H]1O)Oc1ccccc1 [remdesivir] |  |  |  |  |  |  |  |  |  |  |  | -2.36% | 2.72% | -0.597% | 1.89% | -1.37% | 0.523% | 6.53% | 0.0637% | 3.44%
5 | CC(C)OC(=O)[C@H](C)N[P@](=O)(OC[C@H]1O[C@@H](n2ccc(=O)[nH]c2=O)[C@](C)(F)[C@@H]1O)Oc1ccccc1 [sofosbuvir] |  |  |  |  |  |  |  |  |  |  |  | -0.878% | -2.4% | 2.91% | -0.149% | -1.2% | -0.561% | -0.334% | 0.08% | -2.6%
